The source of these data is patent US7344850B2, “Identification of active-site inhibitors of glycosyltransferases using a generalizable high-throughput screen” (Princeton University, priority 2003, dated 2008).

Like-named read-outs stand apart in the source and are kept apart here.

In general, IC50 refers to the concentration at which inhibition is half-maximal. One may read the inhibition as the drop in the measured response relative to a control, in per cent.

Assay [1] concerns the target T1, MurG (Escherichia coli, UniProt P17443). Nature of the assay: fluorescence polarization displacement assay with labeled donor F1. Format: binding, E. coli. The note with it: for Signal change at 25 μM (drop in fluorescence polarization): 25 μM competitor; for Kd: read-out: Dissociation constants. On the technique in general: Fluorescence polarisation rises when a labelled molecule tumbles more slowly, as on binding a larger partner.

Assay [2] deals with T1, MurG. The note with it: biotin-capture assay, C10-Lipid I acceptor; cited from earlier work.
The target of assay [3] is T1, MurG. Kind of assay: radiometric kinetic assay (incorporation of 14C-GlcNAc into Lipid II), secondary screen and IC50. It is filed as biochemical, E. coli. The note with it: for inhibition pattern with respect to UDP-GlcNAc: kinetic analysis.
For another assay, the target named is T2, OGT (Homo sapiens, UniProt O15294).
T2 construct: His tag; made in house; host or cells: E. coli BL21 (DE3) (Novagen)
T2 sequence (O15294 51-920 isoform O15294-2 limits assumed): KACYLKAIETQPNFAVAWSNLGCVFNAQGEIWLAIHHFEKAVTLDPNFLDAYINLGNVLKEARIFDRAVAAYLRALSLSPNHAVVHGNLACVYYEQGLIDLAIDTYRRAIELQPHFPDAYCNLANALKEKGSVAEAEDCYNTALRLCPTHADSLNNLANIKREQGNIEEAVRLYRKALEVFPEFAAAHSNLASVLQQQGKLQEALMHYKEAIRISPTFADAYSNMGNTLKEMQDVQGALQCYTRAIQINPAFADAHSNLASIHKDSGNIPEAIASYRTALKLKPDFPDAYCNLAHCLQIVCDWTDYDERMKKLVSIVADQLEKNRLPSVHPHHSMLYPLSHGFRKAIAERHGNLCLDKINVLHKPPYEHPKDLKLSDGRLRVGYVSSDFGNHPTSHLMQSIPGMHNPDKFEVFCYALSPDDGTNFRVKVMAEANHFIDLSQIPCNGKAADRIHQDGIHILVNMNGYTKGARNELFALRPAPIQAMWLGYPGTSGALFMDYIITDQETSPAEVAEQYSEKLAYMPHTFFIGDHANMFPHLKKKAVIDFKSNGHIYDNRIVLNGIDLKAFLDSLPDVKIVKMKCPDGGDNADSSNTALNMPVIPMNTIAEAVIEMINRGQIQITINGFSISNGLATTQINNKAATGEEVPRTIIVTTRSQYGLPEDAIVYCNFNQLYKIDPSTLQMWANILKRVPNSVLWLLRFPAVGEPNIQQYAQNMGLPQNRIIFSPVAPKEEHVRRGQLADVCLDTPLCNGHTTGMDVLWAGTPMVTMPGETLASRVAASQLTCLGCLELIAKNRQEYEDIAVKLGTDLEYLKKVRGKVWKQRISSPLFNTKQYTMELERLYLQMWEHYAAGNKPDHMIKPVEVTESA
Nature of the assay: Assay for OGT. It is filed as biochemical. The protocol:
The mitochondrial splice variant of OGT, minus the first 50 amino acids, was cloned into pET 32b, and expressed from Novagen BL21 (DE3) cells. The pellet was lysed with B-PER (Pierce) and rLysozyme (Novagen) and the soluble fraction was purified using His-Bind Resin (Novagen). Assay reaction buffer was 10 mM Tris pH 7.4 with 100 μg/mL BSA. […] Inhibitors tested were added in 0.5 μL of DMSO and the final reaction volume was 20 μL. The reactions were quenched after 50 min at room temperature with 10 μL of formic acid and spotted onto phosphocellulose (Whatman P81) paper disks. The disks were washed for 3×5 min with 1% phosphoric acid, 1 min with acetone and dried before counting. The samples were measured by liquid scintillation counting.

For the next assay, the target named is GtfB (Amycolatopsis orientalis, UniProt P96559). Nature of the assay: biochemical.
In another assay the target is PBP1b (Escherichia coli, UniProt P02919). Nature of the assay: Assays for transglycosylase PBP1b. Format: biochemical. As to the method: The protein was purified as described. Chen, L., Men, H., Ha, S., Ye, X.-Y., Brunner, L., Hu, Y., Walker, S. Biochemistry 2002; Tetrahedron 58, 6585 (2002). Assays were carried out by separately incubating varying amounts of ^14C-GlcNAc-labeled C35 Lipid II (specific activity=273 cpm/pmol) and inhibitors in eppendorf tubes containing 9 μL of buffer (50 mM HEPES at pH 7.5, 10 mM CaCl2, 1000 U/mL penicillin G, 0.2 mM decyl PEG, and 11% DMSO), and 1 μL PBP1b (from a solution freshly prepared by diluting the 50% glycerol stock 20-fold into 5 mM Tris buffer, pH 8.0, containing 8 mM decyl PEG) for 10 min. Reactions were started by adding 1 μL of the above PBP1b mixture to the substrate solution, and were typically stopped after 15 min by adding 10 μL ice cold 10 mM Tris (pH 8.0) containing 0.2% Triton X-100. Reactions were left on ice until spotted on cellulose chromatography paper (3M Whatman chromatography paper). Products and starting material were separated following the works of Anderson et al. using chromatography (isobutyric acid: 1N NH4OH=5:3) and quantitated by scintillation counting. Biochemistry 53, 881 (1965).
PBP1b, sequence (P02919 whole entry): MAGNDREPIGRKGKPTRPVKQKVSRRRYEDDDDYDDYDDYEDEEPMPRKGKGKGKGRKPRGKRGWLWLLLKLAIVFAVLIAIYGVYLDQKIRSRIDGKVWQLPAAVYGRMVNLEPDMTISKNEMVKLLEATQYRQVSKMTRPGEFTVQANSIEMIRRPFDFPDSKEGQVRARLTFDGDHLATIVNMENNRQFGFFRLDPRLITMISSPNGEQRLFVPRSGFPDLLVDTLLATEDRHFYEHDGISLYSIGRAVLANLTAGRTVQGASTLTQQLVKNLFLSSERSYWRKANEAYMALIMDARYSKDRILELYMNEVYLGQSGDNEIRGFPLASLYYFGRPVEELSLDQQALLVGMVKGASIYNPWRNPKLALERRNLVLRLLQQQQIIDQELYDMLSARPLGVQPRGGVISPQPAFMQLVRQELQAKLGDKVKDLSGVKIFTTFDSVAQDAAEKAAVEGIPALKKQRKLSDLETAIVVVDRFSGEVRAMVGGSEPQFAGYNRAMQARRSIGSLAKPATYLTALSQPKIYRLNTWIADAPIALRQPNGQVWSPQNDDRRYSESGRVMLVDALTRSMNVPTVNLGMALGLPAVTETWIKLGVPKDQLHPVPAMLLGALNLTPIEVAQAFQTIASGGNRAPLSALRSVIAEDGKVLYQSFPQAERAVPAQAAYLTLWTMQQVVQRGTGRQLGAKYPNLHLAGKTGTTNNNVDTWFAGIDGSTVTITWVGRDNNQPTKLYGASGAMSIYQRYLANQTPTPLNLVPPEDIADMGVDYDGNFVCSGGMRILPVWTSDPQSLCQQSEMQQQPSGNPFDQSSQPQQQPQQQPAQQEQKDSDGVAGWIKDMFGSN

GtfB, sequence (P96559 whole entry): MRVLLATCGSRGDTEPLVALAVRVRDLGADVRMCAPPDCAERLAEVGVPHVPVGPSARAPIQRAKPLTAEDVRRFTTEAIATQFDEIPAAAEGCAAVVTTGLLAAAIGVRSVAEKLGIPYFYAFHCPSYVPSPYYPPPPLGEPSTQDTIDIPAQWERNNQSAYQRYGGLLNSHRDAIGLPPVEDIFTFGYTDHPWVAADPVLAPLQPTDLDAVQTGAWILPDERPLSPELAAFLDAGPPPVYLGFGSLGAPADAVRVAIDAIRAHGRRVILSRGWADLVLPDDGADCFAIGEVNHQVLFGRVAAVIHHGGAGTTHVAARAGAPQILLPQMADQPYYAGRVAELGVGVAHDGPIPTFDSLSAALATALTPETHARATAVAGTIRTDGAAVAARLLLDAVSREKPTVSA
T1 sequence (P17443 whole entry): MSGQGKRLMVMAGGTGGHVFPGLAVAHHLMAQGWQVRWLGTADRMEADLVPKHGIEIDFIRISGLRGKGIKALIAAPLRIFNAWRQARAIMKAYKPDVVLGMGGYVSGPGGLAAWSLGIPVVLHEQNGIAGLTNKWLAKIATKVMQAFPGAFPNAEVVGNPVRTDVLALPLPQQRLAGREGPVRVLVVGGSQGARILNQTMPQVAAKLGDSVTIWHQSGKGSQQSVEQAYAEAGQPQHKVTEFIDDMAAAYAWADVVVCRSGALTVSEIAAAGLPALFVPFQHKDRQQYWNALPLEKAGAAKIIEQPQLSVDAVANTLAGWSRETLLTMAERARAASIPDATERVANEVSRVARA
Experimental for GtfB: Inhibitors, dissolved in DMSO, were added at the indicated concentrations to 20 μL reactions containing 50 nM GtfB, 2 mM UDP-glucose, 75 mM Tricine (pH 9), 4 mM TCEP and 600 μM vancomycin aglycone. For consistency, all reactions contained 5% DMSO. Reactions were incubated at 37° C. for 1.5 hr, then quenched with 20 μL cold methanol and centrifuged at 13,000 rpm for 10 min. Reaction mixtures were resolved by analytical HPLC, using a gradient of 0-45% acetonitrile in water/0.1% TFA over 15 min, at a flow rate of 1 mL per minute. Product formation was monitored by UV absorbance at 285 nm.

For `Nc1ncnc2c1ncn2[C@@H]1O[C@H](COP(=O)(O)OP(=O)(O)O)[C@@H](O)[C@H]1O` [ADP], the “Signal change at 25 μM (drop in fluorescence polarization)” value (from here on “Signal change at 25 μM”) on MurG [1] is recorded as less than 10%. Also, on MurG [1] (displacement of F1 from MurG), the Kd amounted to 88.2 ± 26.9 µM. Further, at MurG [2], the IC50 is 1260 ± 300 µM.

For the compound `CC1CCN(CN2C(=O)/C(=C\c3ccc(C(C)(C)C)cc3)SC2=S)CC1` [Compound 1, 5-(4-tert-Butyl-benzylidene)-3-(4-methyl-piperidin-1-ylmethyl)-2-thioxo-thiazolidin-4-one], the IC50 against MurG [3] is 1.4 µM; on OGT (read-out: IC50 OGT), more than 100 µM; against GtfB, 15 µM; on PBP1b (read-out: IC50 PBP1b), more than 100 µM. The “inhibition pattern with respect to UDP-GlcNAc” value (from here on “inhibition pattern”) against MurG [3] was “competitive inhibitors”.

For `O=C(O)CN1C(=O)/C(=C\c2cc(Cl)cc(Br)c2O)SC1=S` [Compound 2], the IC50 against MurG [3] is 3.4 µM; on OGT (read-out: IC50 OGT), more than 100 µM; against GtfB, 4 µM; on PBP1b (read-out: IC50 PBP1b) it was more than 100 µM.

For `O=C1/C(=C2/C(=O)N(Cc3ccccc3)c3ccc(Br)cc32)SC(=S)N1CCS(=O)(=O)O` [Compound 3], the IC50 against MurG [3] was 3.5 µM; at OGT (read-out: IC50 OGT) it was more than 100 µM; against GtfB, 15 µM; on PBP1b (read-out: IC50 PBP1b), more than 100 µM.

With `O=C1NC(=O)N(c2ccc(Cl)cc2)C(=O)/C1=C/c1ccc(Br)o1` [Compound 4], the IC50 against MurG [3] was 6.4 µM; against OGT it was more than 100 µM; at GtfB it was 11 µM; on PBP1b, more than 100 µM.

Consider `Cc1cc(/C=C2\C(=O)NC(=S)N(c3cccc(Cl)c3)C2=O)c(C)n1-c1cc(C(=O)O)cc(C(=O)O)c1` [Compound 5], for which the IC50 is 1.4 µM against MurG [3], more than 100 µM against OGT, 50 µM against GtfB and more than 100 µM against PBP1b. In addition, the “inhibition pattern” value against MurG [3] is “competitive inhibitors”.

On to `CC(C)(C)c1ccc(OCCOc2cccc(C=C3C(=O)NC(=S)NC3=O)c2)cc1` [Compound 6], for which the IC50 on MurG [3] is 4 µM; against OGT, more than 100 µM; on GtfB, 100 µM; against PBP1b it was more than 100 µM.

For `O=C(O)c1ccc(N2C(=O)/C(=C/c3ccc(-c4ccc(Br)cc4)o3)C=C2c2ccccc2)cc1` [Compound 7], the IC50 against MurG [3] was 5.4 µM; on OGT (read-out: IC50 OGT) it was more than 100 µM; at GtfB, 100 µM; at PBP1b (read-out: IC50 PBP1b) it was more than 100 µM. The “inhibition pattern” value at MurG [3] was “competitive inhibitors”.

`O=c1ccn([C@@H]2O[C@H](COP(=O)(O)OP(=O)(O)O)[C@@H](O)[C@H]2O)c(=O)[nH]1` [UDP, uridine diphosphate]: at MurG [3] (read-out: inhibition of MurG reaction (drop in product formation)), the inhibition at 5 µM amounted to 50%. The “polarization reading relative to wells containing only MurG and labeled donor” value on MurG [1] (25 μM UDP control well) is given as “approximately 50%”. Further, on MurG [1], the “Signal change at 25 μM” value was 50% and the Kd amounted to 2.6 ± 0.2 µM. Besides, the IC50 on MurG [2] was 65 ± 1 µM.

Take `CC(=O)N[C@H]1[C@@H](OP(=O)(O)OP(=O)(O)OC[C@H]2O[C@@H](n3ccc(=O)[nH]c3=O)[C@H](O)[C@@H]2O)O[C@H](CO)[C@H](O)[C@@H]1O` [UDP-GalNAc]: the “Signal change at 25 μM” value at MurG [1] worked out at 10%. The Kd on MurG [1] (displacement of F1 from MurG) is 73.1 ± 14.1 µM. For the same compound, the IC50 on MurG [2] is more than 1000 µM.

As to `CC(=O)N[C@H]1[C@@H](OP(=O)(O)OP(=O)(O)OC[C@H]2O[C@@H](n3ccc(=O)[nH]c3=O)[C@H](O)[C@@H]2O)O[C@H](CO)[C@@H](O)[C@@H]1O` [UDP-GlcNAc, UDP-N-acetylglucosamine], the Kd on MurG [1] (displacement of F1 from MurG) is 1.8 ± 0.2 µM.

Take `O=c1ccn([C@@H]2O[C@H](COP(=O)(O)O)[C@@H](O)[C@H]2O)c(=O)[nH]1` [UMP]: on MurG [1], the “Signal change at 25 μM” value is less than 10%. The Kd at MurG [1] (displacement of F1 from MurG) was 99.6 ± 12.2 µM. Besides, on MurG [2], the IC50 was 600 ± 50 µM.
